From US7365067B2, “Indanol derivative” (Sankyo Company, Limited, priority 2004, dated 2008)

Each compound was assayed against T1, NK2 receptor (Cavia porcellus, UniProt Q64077) (assay: Inhibitory Action on Airway Contraction (In Vivo, Transtracheal Administration), induced by neurokinin A (NKA)). Conditions: Hartley male guinea pigs; 10 μg/kg transtracheal; NKA 4 μg/kg i.v. administered 16 hours after test substance; relative to 5% glucose control group.
T1 construct: in normal guinea pigs (body weights: about 500 g, Hartley male guinea pigs); from tissue; host or cells: airways of live Hartley male guinea pigs (in vivo)
T1 sequence (Q64077 1-402): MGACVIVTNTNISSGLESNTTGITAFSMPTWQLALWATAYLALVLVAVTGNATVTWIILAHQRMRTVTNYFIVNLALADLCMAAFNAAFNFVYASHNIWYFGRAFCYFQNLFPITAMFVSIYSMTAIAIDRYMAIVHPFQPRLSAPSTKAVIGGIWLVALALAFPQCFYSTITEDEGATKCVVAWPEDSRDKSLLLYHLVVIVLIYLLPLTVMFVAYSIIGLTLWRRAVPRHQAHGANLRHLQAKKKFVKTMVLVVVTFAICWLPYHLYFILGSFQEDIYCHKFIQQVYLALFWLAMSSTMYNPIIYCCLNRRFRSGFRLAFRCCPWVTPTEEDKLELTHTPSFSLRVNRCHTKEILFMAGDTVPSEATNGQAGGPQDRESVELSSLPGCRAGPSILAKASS
Design: species or system guinea pig
Source text: Inhibitory Action on Airway Contraction (In Vivo, Transtracheal Administration)
The inhibitory action on airway contraction by the NK2 receptor agonist, neurokinin A (NKA) was investigated using airway internal pressure as an indicator in normal guinea pigs (body weights: about 500 g, Hartley male guinea pigs) using a variation of the method of Konzett-Roessler (Naunyn-Schmiedebergs Arch. Exp. Pathol. Pharmakol. 195, 71 (1940)).
A tracheal cannula and venous cannula were implanted in the guinea pigs under pentobarbital anesthesia (50 mg/mL of liquid, 0.40 to 0.50 mL/body, s.c.). In addition, an arterial cannula filled with heparin-containing physiological saline (100 U/mL) was implanted to monitor blood pressure and heart rate via an amplifier and instantaneous cardiograph. Next, after administering gallamine (20 mg/kg, i.v.) and interrupting spontaneous respiration, positive pressure ventilation (Ugo-Basile Biological Research Apparatus, Cat. No. 7025) was rapidly carried out at 10 mL/kg and 60 times/minute. The airway internal pressure during artificial respiration was detected with a pressure transducer (Nihon Koden, TP-200T or TP-400T) implanted in the lateral branch of the tracheal cannula, amplified (Nihon Koden, AP-601G) and recorded with a recorder (Nihon Koden, WT-645G or WT-685G). After the airway internal pressure, blood pressure and heart rate had stabilized, the standard tracheal contracting substance, methacholine was administered at 10 μg/kg (100 μg/mL, 0.10 mL/kg) to confirm airway response. In the case the prescribed contraction response was not obtained, methacholine was additionally administered at 12 μg/kg (120 μg/mL, 0.10 mL/kg) followed by confirmation of airway response. Five minutes after confirming airway response, NKA was administered intravenously through the intravenous cannula at 4 μg/kg to induce airway contraction followed by measuring airway internal pressure for the next 10 minutes.
The test substance was dissolved in 5% glucose, and a 0.5 mL/kg solution was administered into the airway using an intratracheal administration instrument (1A-1B, Penn-Century).
The surface value over which airway internal pressure had increased at 10 minutes after administration of NKA was taken to represent the strength of NKA-induced airway contraction, and the inhibition rate was calculated relative to a control group (5% glucose transtracheal dose group).

Compound	Inhibition Rate (%) of NKA-induced airway contraction [%]
CN(CCO)C(=O)CO[C@H]1Cc2ccccc2C12CCN(CC[C@@]1(c3ccc(Cl)c(Cl)c3)CN(C(=O)c3cc(C(F)(F)F)cc(C(F)(F)F)c3)CCO1)CC2.Cl [Example 32, 1-(2-{(2R)-2-(3,4-Dichlorophenyl)-4-[3,5-bis(trifluoromethyl)benzoyl]morpholin-2-yl}ethyl)spiro((2S)-2-{[N-(2-hydroxyethyl)-N-methylamino]-2-oxoethoxy})indane-1,4′-piperidine hydrochloride]	89
Cl.O=C(CO[C@H]1Cc2ccccc2C12CCN(CC[C@@]1(c3ccc(Cl)c(Cl)c3)CN(C(=O)c3cc(C(F)(F)F)cc(C(F)(F)F)c3)CCO1)CC2)N1CCC(CCO)CC1 [Example 69, 2-(1-{[((2S)-1′-{2-[(2R)-4-[3,5-bis(Trifluoromethyl)benzoyl]-2-(3,4-dichlorophenyl)morpholin-2-yl]ethyl}-2,3-dihydrospiro[indene-1,4′-piperidin]-2-yl)oxy]acetyl}piperidin-4-yl)ethanol hydrochloride]	88
CN(CCCCO)C(=O)CO[C@H]1Cc2ccccc2C12CCN(CC[C@@]1(c3ccc(Cl)c(Cl)c3)CN(C(=O)c3cc(C(F)(F)F)cc(C(F)(F)F)c3)CCO1)CC2.Cl [Example 58, 2-[((2S)-1′-{2-[(2R)-4-[3,5-bis(Trifluoromethyl)benzoyl]-2-(3,4-dichlorophenyl)morpholin-2-yl]ethyl}-2,3-dihydrospiro[indene-1,4′-piperidin]-2-yl)oxy]-N-(4-hydroxybutyl)-N-methylacetamide hydrochloride]	90
Cl.Cl.O=C(CO[C@H]1Cc2ccccc2C12CCN(CC[C@@]1(c3ccc(Cl)c(Cl)c3)CN(C(=O)c3cc(C(F)(F)F)cc(C(F)(F)F)c3)CCO1)CC2)N(CCO)CCO [Example 31, 1-(2-{(2R)-2-(3,4-Dichlorophenyl)-4-[3,5-bis(trifluoromethyl)benzoyl]morpholin-2-yl}ethyl)spiro((2S)-2-{2-[bis(2-hydroxyethyl)amino]-2-oxoethoxy})indane-1,4′-piperidine dihydrochloride]	82
Cl.O=C(CO[C@H]1Cc2ccccc2C12CCN(CC[C@@]1(c3ccc(Cl)c(Cl)c3)CN(C(=O)c3cc(C(F)(F)F)cc(C(F)(F)F)c3)CCO1)CC2)NCCO [Example 33, 1-(2-{(2R)-2-(3,4-Dichlorophenyl)-4-[3,5-bis(trifluoromethyl)benzoyl]morpholin-2-yl}ethyl)spiro((2S)-2-{2-[N-(2-hydroxyethyl)amino]-2-oxoethoxy})indane-1,4′-piperidine hydrochloride]	93
Cl.Cl.O=C(CN1CCOCC1)O[C@H]1Cc2ccccc2C12CCN(CC[C@@]1(c3ccc(Cl)c(Cl)c3)CN(C(=O)c3cc(C(F)(F)F)cc(C(F)(F)F)c3)CCO1)CC2 [Example 6, 1-(2-{(2R)-2-(3,4-Dichlorophenyl)-4-[3,5-bis(trifluoromethyl)benzoyl]morpholin-2-yl}ethyl)spiro((2S)-2-{[(morpholin-1-yl)acetyl]oxy})indane-1,4′-piperidine dihydrochloride]	97
CN(CCCO)C(=O)CO[C@H]1Cc2ccccc2C12CCN(CC[C@@]1(c3ccc(Cl)c(Cl)c3)CN(C(=O)c3cc(C(F)(F)F)cc(C(F)(F)F)c3)CCO1)CC2.Cl [Example 64, 2-[((2S)-1′-{2-[(2R)-4-[3,5-bis(Trifluoromethyl)benzoyl]-2-(3,4-dichlorophenyl)morpholin-2-yl]ethyl}-2,3-dihydrospiro[indene-1,4′-piperidin]-2-yl)oxy]-N-(3-hydroxypropyl)-N-methylacetamide hydrochloride]	87
